Where “and” joins values, the source holds several entries; their conditions need not be identical. Identical values can stand only once.
Experiments:
U87-MG and U251-MG cells = assay: Immunofluorescence of pH3 and Cleaved Caspase-3; format: cell-based, human; details: U87-MG and U251-MG, 1, 5 and 10 μM
Protocol: (§1) Immunofluorescence assays were performed following standard procedures. Cells were seeded at a density of 2 × 10^4 cells/well in 8-well immunofluorescence chambers (LabTek Thermo) and incubated overnight before treating with increasing concentrations of DDI199. After 48 h, cells were fixed with 4% PFA. Primary antibodies against phosphohistone H3 (pH3) (ab14955, abcam), Cleaved Caspase 3 (AF385, R&D Systems), Ki67 (ab15580, abcam) and PARP1 (ab32064, abcam) were used. Secondary antibodies were Alexa Fluor anti-mouse (A21422, Invitrogen) and Alexa Fluor anti-rabbit (A31572, Invitrogen), and chromatin was stained with DAPI (D9541, Sigma-Aldrich). Axio Observer 7 epifluorescence microscope was used to take pictures, which were later quantified in Qupath.

recombinant hAChE = biological target: T1, recombinant hAChE (Homo sapiens, UniProt P22303); assay: AChE inhibition, Ellman's colorimetric method; format: biochemical; details: 10 µM compound; read-out: AChE inhibition percentage
T1 construct: purchased Sigma-Aldrich
T1 sequence (P22303 32-614): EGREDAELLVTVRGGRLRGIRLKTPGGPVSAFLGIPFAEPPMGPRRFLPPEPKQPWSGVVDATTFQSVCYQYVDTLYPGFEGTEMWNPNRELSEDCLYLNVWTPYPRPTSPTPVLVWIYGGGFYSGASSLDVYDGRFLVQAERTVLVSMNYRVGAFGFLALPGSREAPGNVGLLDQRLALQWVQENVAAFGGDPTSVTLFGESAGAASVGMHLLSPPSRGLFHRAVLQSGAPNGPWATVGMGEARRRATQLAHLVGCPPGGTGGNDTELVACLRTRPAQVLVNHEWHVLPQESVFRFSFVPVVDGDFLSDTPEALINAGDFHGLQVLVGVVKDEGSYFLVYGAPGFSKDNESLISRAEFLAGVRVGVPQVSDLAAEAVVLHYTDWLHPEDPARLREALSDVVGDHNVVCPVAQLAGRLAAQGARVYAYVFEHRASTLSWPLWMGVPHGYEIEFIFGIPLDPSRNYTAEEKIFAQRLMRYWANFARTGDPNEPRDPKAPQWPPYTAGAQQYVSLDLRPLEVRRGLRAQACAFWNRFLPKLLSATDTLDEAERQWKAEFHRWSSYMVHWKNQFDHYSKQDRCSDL
Protocol: (§2) Similarly, Ellman’s colorimetric method was used to study the inhibitory capacity of the compound on ChEs. Enzyme solution containing either recombinant hAChE (Sigma-Aldrich) at 0.5 U/mL or hBChE (Sigma-Aldrich) at 0.25 U/mL was incubated with inhibitor solution containing 10 µM of DDI199 or reference compound and 0.3 mM of DTNB (Sigma-Aldrich) for 20 minutes at 37 °C. […] In addition, kinetic of enzyme inhibition was also studied by repeating the same protocol and using five different concentrations of the substrate and four different concentrations of the inhibitor. Results were represented in a Lineweaver-Burk plot using GraphPad Prism software, and the constant of inhibition (Ki) was estimated from the point at which the line cuts the x-axis at the secondary plot.

recombinant hBChE = biological target: T2, recombinant hBChE (Homo sapiens, UniProt P06276); assay: BChE inhibition and kinetics, Ellman's colorimetric method; format: biochemical
T2 construct: purchased Sigma-Aldrich
T2 sequence (P06276 29-602): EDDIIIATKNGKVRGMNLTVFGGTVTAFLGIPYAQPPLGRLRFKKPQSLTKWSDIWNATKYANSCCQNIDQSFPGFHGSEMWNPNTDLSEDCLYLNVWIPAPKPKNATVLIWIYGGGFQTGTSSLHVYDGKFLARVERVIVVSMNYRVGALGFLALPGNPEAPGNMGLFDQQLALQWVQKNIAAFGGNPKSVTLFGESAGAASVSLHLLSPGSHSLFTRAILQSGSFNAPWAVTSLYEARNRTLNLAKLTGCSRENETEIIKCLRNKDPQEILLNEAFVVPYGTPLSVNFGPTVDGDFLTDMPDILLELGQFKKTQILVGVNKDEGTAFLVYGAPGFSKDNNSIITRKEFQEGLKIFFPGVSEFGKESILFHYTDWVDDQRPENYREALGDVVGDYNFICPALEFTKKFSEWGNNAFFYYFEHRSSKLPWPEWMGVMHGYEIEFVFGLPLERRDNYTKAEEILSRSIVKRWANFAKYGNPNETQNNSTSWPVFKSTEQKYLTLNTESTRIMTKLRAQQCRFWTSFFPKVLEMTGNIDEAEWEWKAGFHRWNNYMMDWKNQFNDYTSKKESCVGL
Protocol: as §2

HDAC6 = HDAC6 (Homo sapiens, UniProt Q9UBN7); assay: HDAC6 enzyme inhibition; format: biochemical; details: read-out: HDAC inhibition IC50 HDAC6
Chain of HDAC6 (Q9UBN7 whole entry): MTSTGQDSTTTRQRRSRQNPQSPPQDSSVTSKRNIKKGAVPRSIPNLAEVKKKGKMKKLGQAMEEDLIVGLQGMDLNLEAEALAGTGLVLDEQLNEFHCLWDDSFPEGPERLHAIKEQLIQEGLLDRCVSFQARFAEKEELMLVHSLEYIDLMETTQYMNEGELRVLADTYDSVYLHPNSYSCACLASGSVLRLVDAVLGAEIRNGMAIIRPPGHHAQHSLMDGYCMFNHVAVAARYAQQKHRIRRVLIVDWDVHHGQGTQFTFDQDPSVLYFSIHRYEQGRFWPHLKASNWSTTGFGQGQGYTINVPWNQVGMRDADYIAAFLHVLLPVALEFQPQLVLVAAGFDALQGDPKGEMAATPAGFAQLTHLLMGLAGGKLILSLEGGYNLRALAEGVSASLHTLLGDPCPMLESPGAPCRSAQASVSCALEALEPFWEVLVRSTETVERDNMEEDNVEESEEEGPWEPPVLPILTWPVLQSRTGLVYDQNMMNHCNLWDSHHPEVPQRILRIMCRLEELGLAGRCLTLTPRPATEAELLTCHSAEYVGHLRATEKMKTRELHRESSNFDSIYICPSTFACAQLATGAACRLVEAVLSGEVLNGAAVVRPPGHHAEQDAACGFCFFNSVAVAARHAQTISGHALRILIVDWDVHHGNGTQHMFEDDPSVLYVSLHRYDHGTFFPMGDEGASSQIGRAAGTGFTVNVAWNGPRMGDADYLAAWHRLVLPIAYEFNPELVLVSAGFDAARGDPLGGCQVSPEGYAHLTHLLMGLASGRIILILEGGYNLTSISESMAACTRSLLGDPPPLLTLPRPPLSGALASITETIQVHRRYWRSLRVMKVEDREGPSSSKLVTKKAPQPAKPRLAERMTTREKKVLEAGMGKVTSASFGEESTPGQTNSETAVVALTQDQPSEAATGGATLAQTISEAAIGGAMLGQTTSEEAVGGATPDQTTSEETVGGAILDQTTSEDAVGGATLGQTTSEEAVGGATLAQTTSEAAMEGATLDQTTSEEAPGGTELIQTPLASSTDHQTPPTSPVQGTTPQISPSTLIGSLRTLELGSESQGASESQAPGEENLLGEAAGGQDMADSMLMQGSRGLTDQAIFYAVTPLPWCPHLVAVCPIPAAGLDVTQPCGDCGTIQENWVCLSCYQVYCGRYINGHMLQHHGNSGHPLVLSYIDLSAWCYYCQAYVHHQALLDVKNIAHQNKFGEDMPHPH
Protocol: The inhibitory capacity of DDI199 on HDACs was studied as previously described. The capacity of DDI199 to inhibit MAOs was studied by mimicking the reaction occurring in cells. Briefly, inhibitor solution containing 10 µM of DDI199 or reference compound was incubated for 30 minutes at 37 °C together with the enzyme solution, containing either recombinant hMAO-A (Sigma-Aldrich) at 0.5 U/mL or hMAO-B (Sigma-Aldrich) at 1.5 U/mL. 200 U/mL horseradish peroxidase (Sigma-Aldrich), 20 mM Ampliflu Red (Sigma-Aldrich) and 100 mM tyramine hydrochloride (Sigma-Aldrich) were then added and absorbance at 570 nm was measured every 5 minutes for 30 minutes. Percentage of inhibition was estimated from these values.

[1] = In vivo toxicity assay (body weight, organ macroscopy); design: species or system athymic nude-Foxn1nu mice; details: intraperitoneal 15 mg/mL, 5 times per week for 4 weeks
Protocol: 15 mg/mL of DDI199 or vehicle (DMSO) were intraperitoneally injected in athymic nude-Foxn1^nu mice following a schedule of 5 days on and 2 days off and changes in body weight were measured to assess the potential toxicity of the MSM. At the end-point macroscopic analysis of the different organs was done.

GNS179 cells = assay: Immunofluorescence of pH3, Cleaved Caspase 3; format: cell-based, human; details: for pH3-positive cells: control […]
Protocol: as §1

U87-MG cells = assay: Subcutaneous U87-MG tumor growth, single treatment; format: in vivo, athymic nude-Foxn1nu mice; details: day 34, 100 µM intratumoral
Protocol: For tumor growth experiments, 5 × 10^5 U87-MG cells were subcutaneously injected into two bottom flanks of athymic nude-Foxn1^nu mice, and once tumors reached a size of 25-50 mm^3, mice were sorted into groups taking into account gender and tumor size. Afterwards, mice were intratumorally treated with vehicle, SAHA 100 µM or DDI199 100 µM following a schedule of 5 days on and 2 days off. In combined treatment, mice were treated intraperitoneally with 0.5 mg/Kg of TMZ for 5 days and intratumorally following a schedule of 5 days on and 2 days off with vehicle, SAHA 100 µM or DDI199 100 µM. After 4 weeks of treatment, some mice were kept for washout experiment, while the rest were sacrificed and tumors were extracted for immunohistochemistry and to disaggregate for reinjection and oncosphere formation studies. For reinjection assays, 1.5 × 10^5 cells were subcutaneously injected and tumor size was periodically measured. Once tumors reached end-point criteria, they were extracted for immunohistochemical analysis. An external caliper was used for tumor size measurement and the tumor volume was estimated using the formula V = L · W^2 · 0.5 (where L is tumor length and W is the tumor width).

For `C#CCN(Cc1cc2cc(OCCCN3CCCCC3)ccc2n1S(=O)(=O)c1ccccc1)C(=O)CCCCCCC(=O)NO` [DDI199], the Caspase-3 positive cells (U87-MG and U251-MG cells) was “markedly increased”, the p-H3 positive cells (U87-MG and U251-MG cells) was “reduced” and the inhibition at 10 µM (recombinant hAChE) was 25%. For the same compound, the IC50 (recombinant hBChE) was 2540 nM, the inhibition at 10 µM (recombinant hBChE; 10 µM compound, read-out: BChE inhibition percentage) was 75% and the “BChE type of inhibition” value (recombinant hBChE; Lineweaver-Burk plot) was “mixed inhibition”. The Ki (recombinant hBChE; from Lineweaver-Burk and secondary plots) was 870 nM, the IC50 (HDAC6) was 95 nM and 90 nM and the “Body weight of animals compared to controls” value [1] was “did not significantly affect the body weight”. The “Macroscopic analysis of organs at end-point” value [1] was “did not observe any difference”, the pH3-positive cells (GNS179 cells; GNS179, 1 µM) was 2.4% and the pH3-positive cells (GNS179 cells; GNS179, 5 µM) was 0.8%. The pH3-positive cells (GNS179 cells; GNS179, 10 µM) was 0.11%, the “Cleaved Caspase-3-positive cells” value (GNS179 cells; GNS179, 1, 5 and 10 µM) was “increase” and the “Reduction in tumor growth versus controls” value (U87-MG cells) was roughly 50%. The “Tumor weight at end-point” value (U87-MG cells) was “significantly lower than the controls and also of SAHA” and the “Mean final tumor volume” value (U87-MG cells; 5 days on 2 days off, controls 800 mm^3) was 465 mm^3.
